Assay results from ChEMBL document CHEMBL1201862, “PubChem BioAssay data set” (2004).
Calls of active or inactive are those of the source.

What was measured:
Keap1/Nrf2 = Keap1/Nrf2 (Homo sapiens, UniProt Q14145); test: disruptors of Keap1 binding to Nrf2 peptide – biochemical, fluorescence polarization, cherry-picked samples, dose response (AID 588683)
[1] = molecular target: T1, DNA repair and recombination protein RAD54-like (Homo sapiens, UniProt Q92698); test: RAD54 Holliday junction migration blockers – biochemical, fluorescence, cherry-picked samples, dose series, confirmation (AID 651657); assay type: functional
T1 sequence (Q92698 whole entry): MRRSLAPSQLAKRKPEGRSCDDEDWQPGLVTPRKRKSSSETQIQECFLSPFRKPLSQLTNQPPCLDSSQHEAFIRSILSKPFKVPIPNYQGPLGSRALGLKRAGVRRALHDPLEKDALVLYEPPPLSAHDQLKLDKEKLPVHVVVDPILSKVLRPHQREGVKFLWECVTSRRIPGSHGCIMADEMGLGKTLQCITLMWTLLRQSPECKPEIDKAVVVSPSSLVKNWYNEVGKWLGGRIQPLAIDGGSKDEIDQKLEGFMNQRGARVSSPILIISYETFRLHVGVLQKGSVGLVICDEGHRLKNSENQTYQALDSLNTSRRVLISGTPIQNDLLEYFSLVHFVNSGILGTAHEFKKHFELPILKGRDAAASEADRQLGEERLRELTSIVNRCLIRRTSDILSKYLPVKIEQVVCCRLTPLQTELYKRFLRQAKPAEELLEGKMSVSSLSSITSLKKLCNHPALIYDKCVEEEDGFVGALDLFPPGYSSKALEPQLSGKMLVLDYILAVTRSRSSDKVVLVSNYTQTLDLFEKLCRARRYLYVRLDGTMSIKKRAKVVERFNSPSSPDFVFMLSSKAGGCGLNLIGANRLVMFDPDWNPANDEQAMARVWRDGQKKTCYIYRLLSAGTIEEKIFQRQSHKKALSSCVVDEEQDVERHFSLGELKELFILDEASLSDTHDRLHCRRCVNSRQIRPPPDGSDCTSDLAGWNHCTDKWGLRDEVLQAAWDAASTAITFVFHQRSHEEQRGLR

HeLa = test: viability loss in HeLa cells – cell-based, 24 h, cherry-picked samples, cytotoxicity control, dose response (AID 504726); assay type: functional; conditions: Homo sapiens;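 note: potency for cytotoxicity as loss of luminescence signal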
[2] = molecular target: T2, Rac GTPase-activating protein 1 (Homo sapiens, UniProt Q9H0H5); test: blockers of MgcRacGAP-driven Rac1 GTP hydrolysis – biochemical, ADP Hunter fluorescence, primary and confirmatory, confirmation (AID 624330); assay type: functional
T2 sequence (Q9H0H5 whole entry): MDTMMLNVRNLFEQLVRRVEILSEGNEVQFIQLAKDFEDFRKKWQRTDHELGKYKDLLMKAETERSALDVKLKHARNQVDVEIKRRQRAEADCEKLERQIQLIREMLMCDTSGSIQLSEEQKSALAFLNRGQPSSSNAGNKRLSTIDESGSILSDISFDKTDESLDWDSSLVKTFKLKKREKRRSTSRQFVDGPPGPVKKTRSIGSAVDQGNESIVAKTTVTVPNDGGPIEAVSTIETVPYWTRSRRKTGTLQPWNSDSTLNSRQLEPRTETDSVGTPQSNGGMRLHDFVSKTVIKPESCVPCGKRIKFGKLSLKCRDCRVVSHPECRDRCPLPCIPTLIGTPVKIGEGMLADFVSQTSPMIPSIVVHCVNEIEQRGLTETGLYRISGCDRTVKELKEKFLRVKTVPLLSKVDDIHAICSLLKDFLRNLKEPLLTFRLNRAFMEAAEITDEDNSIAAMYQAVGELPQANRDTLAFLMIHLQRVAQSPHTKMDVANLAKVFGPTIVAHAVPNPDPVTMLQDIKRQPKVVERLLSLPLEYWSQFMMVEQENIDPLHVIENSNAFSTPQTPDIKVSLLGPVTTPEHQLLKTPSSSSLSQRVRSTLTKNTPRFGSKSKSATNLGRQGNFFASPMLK

[3] = molecular target: Matrix metalloproteinase-14 (Homo sapiens, UniProt P50281); test: Dose Response confirmation of uHTS hits for a small molecule inhibitors of MT1-MMP activation in a fluorescence assay set 1.; assay type: functional
[4] = DRD fibroblast viability loss – cell-based, non-viral oncogenic, luminescence, dose response (AID 1934); assay type: functional; conditions: Homo sapiens
Beta Lactamase = Beta Lactamase (Pseudomonas aeruginosa, UniProt Q932Y6); test: BLA reporter interference, concentration series – BLA reporter cells, FRET fluorescence, artefact control for TLR9-MyD88 binding inhibitor project, dose response (AID 588341); assay type: cell-based;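 note: cell based assay in CHO-K1 cells stably expressing beta-lactamase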
BJ = test: BJ-TERT fibroblast viability loss – cell-based, RAS-independent, luminescence, dose response (AID 1933); assay type: functional; conditions: Homo sapiens
[5] = molecular target: T3, Small ubiquitin-related modifier 2 (Homo sapiens, UniProt P61956); test: disruption of SUMO2 interaction with SIM peptide – biochemical, fluorescence polarization, uHTS hits, selectivity assay for SUMO1 interaction inhibitor project, dose response (AID 624385); assay type: functional; conditions: read-out: IC50_Mean
[6] = molecular target: T4, Tyrosine-protein phosphatase non-receptor type 22 (Homo sapiens, UniProt Q9Y2R2); assay type: functional;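 note: confirmatory dose-response retesting of primary uHTS hits against LYP; potency is for inhibition of phosphatase activity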
T4 sequence (Q9Y2R2 whole entry): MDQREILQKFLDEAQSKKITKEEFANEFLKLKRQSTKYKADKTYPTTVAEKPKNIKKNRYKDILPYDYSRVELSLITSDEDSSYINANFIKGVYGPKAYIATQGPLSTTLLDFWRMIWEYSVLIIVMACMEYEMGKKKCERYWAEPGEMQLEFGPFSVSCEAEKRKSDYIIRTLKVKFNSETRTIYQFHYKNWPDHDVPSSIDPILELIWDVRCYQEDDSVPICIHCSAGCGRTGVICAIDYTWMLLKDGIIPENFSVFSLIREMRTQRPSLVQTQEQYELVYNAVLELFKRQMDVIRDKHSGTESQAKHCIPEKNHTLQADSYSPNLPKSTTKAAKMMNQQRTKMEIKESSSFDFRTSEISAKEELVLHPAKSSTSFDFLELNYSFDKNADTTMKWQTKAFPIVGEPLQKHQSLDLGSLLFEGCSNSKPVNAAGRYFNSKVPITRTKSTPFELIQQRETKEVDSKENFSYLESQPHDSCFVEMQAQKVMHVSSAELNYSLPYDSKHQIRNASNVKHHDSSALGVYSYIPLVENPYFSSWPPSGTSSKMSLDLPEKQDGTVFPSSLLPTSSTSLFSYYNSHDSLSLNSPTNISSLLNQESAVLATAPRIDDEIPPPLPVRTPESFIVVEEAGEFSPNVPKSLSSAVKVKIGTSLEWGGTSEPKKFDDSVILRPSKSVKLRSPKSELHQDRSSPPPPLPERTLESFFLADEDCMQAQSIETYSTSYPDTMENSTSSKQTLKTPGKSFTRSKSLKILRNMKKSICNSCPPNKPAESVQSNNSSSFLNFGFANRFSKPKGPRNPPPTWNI

[7] = molecular target: T5, Dual specificity protein phosphatase 3 (Homo sapiens, UniProt P51452); test: VHR1 phosphatase inhibitors, primary screen, biochemical, absorbance, uHTS (AID 1654)
[8] = molecular target: T3, Small ubiquitin-related modifier 2; test: SUMO2 binding disruption by SUMO1 hits – biochemical, FRET, human SUMO2, uHTS hits, selectivity assay for SUMO1 interaction inhibitor project, dose response (AID 624384); assay type: functional; conditions: read-out: IC50_Mean
[9] = molecular target: T5, Dual specificity protein phosphatase 3; test: VHR1 phosphatase inhibitors, biochemical (AID 1878)

T3 sequence (P61956 whole entry): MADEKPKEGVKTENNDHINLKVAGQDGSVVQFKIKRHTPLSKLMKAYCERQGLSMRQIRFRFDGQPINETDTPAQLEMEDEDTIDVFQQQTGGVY
T5 sequence (P51452 whole entry): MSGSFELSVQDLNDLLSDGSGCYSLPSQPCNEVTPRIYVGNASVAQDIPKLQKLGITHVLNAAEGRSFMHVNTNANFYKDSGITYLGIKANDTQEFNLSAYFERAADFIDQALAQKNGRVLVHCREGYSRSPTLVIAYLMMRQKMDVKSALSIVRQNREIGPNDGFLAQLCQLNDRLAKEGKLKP
Sequence of Beta Lactamase (Q932Y6 whole entry): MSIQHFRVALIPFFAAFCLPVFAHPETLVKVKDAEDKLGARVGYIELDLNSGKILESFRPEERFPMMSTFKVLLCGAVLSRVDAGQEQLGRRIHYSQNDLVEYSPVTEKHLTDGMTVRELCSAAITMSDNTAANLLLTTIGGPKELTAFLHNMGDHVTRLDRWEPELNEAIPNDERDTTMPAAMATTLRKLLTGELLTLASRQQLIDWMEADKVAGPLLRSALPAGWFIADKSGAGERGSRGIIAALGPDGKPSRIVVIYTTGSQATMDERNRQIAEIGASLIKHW
Sequence of Keap1/Nrf2 (Q16236 whole entry): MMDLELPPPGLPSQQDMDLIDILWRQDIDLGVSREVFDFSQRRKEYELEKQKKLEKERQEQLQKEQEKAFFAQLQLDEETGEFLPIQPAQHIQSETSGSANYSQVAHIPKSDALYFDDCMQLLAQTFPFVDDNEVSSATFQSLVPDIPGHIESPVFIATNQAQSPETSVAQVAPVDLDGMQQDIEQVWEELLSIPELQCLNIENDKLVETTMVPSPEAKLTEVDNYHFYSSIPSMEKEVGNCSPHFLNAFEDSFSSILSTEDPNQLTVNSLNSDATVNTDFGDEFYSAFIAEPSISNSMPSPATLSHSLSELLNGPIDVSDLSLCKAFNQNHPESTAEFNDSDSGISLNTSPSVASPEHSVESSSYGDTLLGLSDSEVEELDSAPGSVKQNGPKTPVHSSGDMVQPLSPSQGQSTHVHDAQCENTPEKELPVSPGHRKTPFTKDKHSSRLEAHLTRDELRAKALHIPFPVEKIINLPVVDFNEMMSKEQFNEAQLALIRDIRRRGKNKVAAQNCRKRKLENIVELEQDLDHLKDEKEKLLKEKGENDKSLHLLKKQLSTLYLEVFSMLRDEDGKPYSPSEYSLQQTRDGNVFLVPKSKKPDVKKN
Sequence of Keap1/Nrf2 (Q14145 whole entry): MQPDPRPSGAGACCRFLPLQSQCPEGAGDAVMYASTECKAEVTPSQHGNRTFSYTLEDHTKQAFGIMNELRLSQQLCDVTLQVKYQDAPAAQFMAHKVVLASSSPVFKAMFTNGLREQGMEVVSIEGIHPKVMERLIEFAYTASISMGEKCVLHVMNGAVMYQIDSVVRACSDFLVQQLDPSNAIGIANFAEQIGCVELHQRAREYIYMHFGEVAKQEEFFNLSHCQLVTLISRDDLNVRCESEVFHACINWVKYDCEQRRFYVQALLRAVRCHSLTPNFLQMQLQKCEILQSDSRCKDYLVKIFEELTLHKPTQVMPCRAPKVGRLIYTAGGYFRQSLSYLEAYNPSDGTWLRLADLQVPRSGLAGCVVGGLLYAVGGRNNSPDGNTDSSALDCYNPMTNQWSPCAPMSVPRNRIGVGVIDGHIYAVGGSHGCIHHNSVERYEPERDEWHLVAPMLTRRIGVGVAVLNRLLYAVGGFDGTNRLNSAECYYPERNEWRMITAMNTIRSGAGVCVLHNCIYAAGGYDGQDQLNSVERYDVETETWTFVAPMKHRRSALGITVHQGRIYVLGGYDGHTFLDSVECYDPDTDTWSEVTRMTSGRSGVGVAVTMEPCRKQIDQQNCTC

CCN(CC)CCN1C(=O)c2cccc3cc(N)cc(c23)C1=O
AC50 (Keap1/Nrf2): > 52 µM (inactive)
AC50 [1]: 8.83 µM (active)
AC50 (HeLa): 109 µM (active)

O=S(=O)(O)c1cc(Cl)cc(N=Nc2ccc(O)cc2O)c1O
IC50 [2]: 83.7 µM (active)
IC50 [3]: 1.41 µM (active)

C=C1C(=O)O[C@@H]2C[C@@H](C)[C@@H]3C=CC(=O)[C@@]3(C)[C@@H](OC(=O)CC(=O)O[C@H]3[C@@H]4C(=C)C(=O)O[C@@H]4C[C@@H](C)[C@@H]4C=CC(=O)[C@]43C)[C@H]12
EC50 [4]: 332 nM (inconclusive)
IC50 (Beta Lactamase): 17.9 µM (inactive)
EC50 (BJ): 354 nM (inconclusive)

O=C(O)c1cccc(-n2cccc2/C=C2/NC(=O)N(c3ccc(Cl)cc3)C2=O)c1
IC50 [5]: 66 µM (inactive)
IC50 [6]: 2.44 µM (active)
IC50 [7]: < 980 nM (inactive)
IC50 [8]: 752 nM (active)
IC50 [9]: < 1.23 µM (inactive)
